Nine compounds from PubChem BioAssay (NCI) can be followed below.

Some test systems named below: ACHN renal; NCI-H23 lung; SK-OV-3 ovarian; K-562 leukemia; BT-549 breast; MCF7 breast; NCI/ADR-RES ovarian; SR leukemia; A549 NSCLC; DU-145 prostate.
Assay in all cases: NCI anticancer screen, dose series, 48 h

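1) Cells in 96-well plates. 2) Compound, 48 h, 5 concentrations. 3) Linear interpolation between surrounding doses. 4) Unreached endpoint = highest concentration. At the GI50, growth is halved. TGI marks complete inhibition of growth.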

Turning to `Cc1cccc(NC(=O)/C=C/c2ccc([N+](=O)[O-])cc2)c1`, the TGI in the assay with ACHN renal is 28.8 µM; with NCI-H23 lung, 31.7 µM; in the assay with SK-OV-3 ovarian it was over 61.5 µM; in the assay on K-562 leukemia, over 100 µM; in the assay with BT-549 breast, over 51.8 µM; in the assay with MCF7 breast it was over 43.9 µM. Also, the TGI was over 59.3 µM in the assay with NCI/ADR-RES ovarian, over 24.5 µM in the assay with SR leukemia, over 56.2 µM with A549 NSCLC and over 55 µM in the assay with DU-145 prostate.
In the case of `O=C1c2ccccc2C(=O)c2c(NCC3CO3)ccc(NCC3CO3)c21` (stereo not given), the TGI with ACHN renal was 2.62 µM; in the assay on NCI-H23 lung it was 8.71 µM; in the assay with SK-OV-3 ovarian, over 47 µM; in the assay on K-562 leukemia it was over 100 µM; in the assay with BT-549 breast, 14.1 µM; with MCF7 breast, 1.25 µM. The TGI in the assay with NCI/ADR-RES ovarian was 11.4 µM; with SR leukemia it was over 27.2 µM; in the assay on A549 NSCLC, 58.8 µM; with DU-145 prostate, 30.2 µM.
`Cc1ccc(-c2nc([P+](c3ccccc3)(c3ccccc3)c3ccccc3)c(Nc3ccccc3)o2)cc1`: the GI50 in the assay on ACHN renal was 1.04 µM; with NCI-H23 lung, 344 nM; in the assay on SK-OV-3 ovarian, 1440 nM; in the assay with K-562 leukemia, 326 nM; with BT-549 breast it was 1530 nM; in the assay on MCF7 breast, 346 nM. The GI50 with NCI/ADR-RES ovarian is 1.11 µM; in the assay with SR leukemia, 390 nM; with A549 NSCLC, 1.15 µM; with DU-145 prostate it was 1200 nM. Moreover, the TGI in the assay with ACHN renal was 2.22 µM; in the assay with NCI-H23 lung, 1.28 µM; in the assay on SK-OV-3 ovarian it was 3.08 µM; in the assay with K-562 leukemia, 1.27 µM; in the assay on BT-549 breast, 3.02 µM; in the assay with MCF7 breast, 1.43 µM. Moreover, the TGI in the assay with NCI/ADR-RES ovarian is 2.58 µM; in the assay on SR leukemia, 2.32 µM; in the assay with A549 NSCLC, 2.87 µM; in the assay on DU-145 prostate, 2.48 µM.
Regarding `Clc1ccccc1C(Nc1ncccn1)Nc1ncccn1`, the TGI with ACHN renal, with NCI-H23 lung, with SK-OV-3 ovarian, in the assay on K-562 leukemia, in the assay with BT-549 breast and in the assay on MCF7 breast was over 100 µM throughout. Moreover, the TGI in the assay with NCI/ADR-RES ovarian, with SR leukemia, in the assay with A549 NSCLC and with DU-145 prostate was over 100 µM in each case.
Turning to `CN(C)c1ccc(/C=c2/c3ccccc3n3c2c2cc(F)ccc2[n+]3C)cc1`, the GI50 is 34.6 µM in the assay on ACHN renal; 14100 nM in the assay on NCI-H23 lung; 34100 nM with SK-OV-3 ovarian; 1480 nM with K-562 leukemia; 2650 nM in the assay with BT-549 breast; 6570 nM with MCF7 breast. The GI50 with NCI/ADR-RES ovarian was 48.4 µM; in the assay on SR leukemia it was 50.1 nM; in the assay with A549 NSCLC, 6.04 µM; in the assay on DU-145 prostate it was 5070 nM. Further, the TGI with ACHN renal is over 100 µM; in the assay with NCI-H23 lung, 30.9 µM; with SK-OV-3 ovarian it was over 100 µM; in the assay with K-562 leukemia it was over 47.5 µM; in the assay on BT-549 breast, 13.1 µM; in the assay on MCF7 breast, 32.1 µM. Also, the TGI was over 100 µM in the assay with NCI/ADR-RES ovarian, 1.23 µM with SR leukemia, 27.2 µM with A549 NSCLC and 18.4 µM with DU-145 prostate.
As for `COc1ccc(Nc2nc3cc(N)cc(N)c3nc2-c2ccccc2)cc1OC`, the GI50 is 27.4 µM with ACHN renal; 26300 nM with NCI-H23 lung; 38200 nM in the assay on SK-OV-3 ovarian; 20200 nM in the assay with K-562 leukemia; 25900 nM in the assay with BT-549 breast; 20500 nM in the assay with MCF7 breast. The GI50 with NCI/ADR-RES ovarian is 17.2 µM; with SR leukemia it was 2670 nM; with A549 NSCLC, 35.2 µM; in the assay with DU-145 prostate, 45000 nM. The TGI with ACHN renal is over 100 µM; with NCI-H23 lung, 80.1 µM; in the assay with SK-OV-3 ovarian, 87.5 µM; with K-562 leukemia, 71.2 µM; with BT-549 breast, 81.6 µM; with MCF7 breast it was 44.8 µM. Moreover, the TGI in the assay with NCI/ADR-RES ovarian was 42.7 µM; in the assay on SR leukemia it was 21.8 µM; in the assay with A549 NSCLC it was over 100 µM; with DU-145 prostate, over 100 µM.
For the compound `COc1cc(C2C3=C(COC3=O)N(CCO)c3cc4c(cc32)OCO4)cc(OC)c1O` (stereo not given), the GI50 with ACHN renal was over 13.5 µM; with NCI-H23 lung, 1840 nM; with SK-OV-3 ovarian it was 2030 nM; in the assay with K-562 leukemia, 1490 nM; in the assay with BT-549 breast, 2280 nM; with MCF7 breast, 1190 nM. In addition, the GI50 in the assay on NCI/ADR-RES ovarian is 11.3 µM; in the assay on SR leukemia, 611 nM; with A549 NSCLC, 5.62 µM; with DU-145 prostate, 1580 nM. The TGI in the assay on ACHN renal was over 50 µM; with NCI-H23 lung, over 38 µM; in the assay with SK-OV-3 ovarian, over 26.7 µM; in the assay on K-562 leukemia, over 50 µM; in the assay on BT-549 breast it was over 34.3 µM; in the assay on MCF7 breast, over 50 µM. Also, the TGI is over 50 µM in the assay with NCI/ADR-RES ovarian, over 11.9 µM in the assay on SR leukemia, over 50 µM in the assay with A549 NSCLC and 7.22 µM with DU-145 prostate.
Regarding `Oc1[nH]c2ccccc2c1N=Nc1c(F)c(F)c(F)c(F)c1F`, the TGI with ACHN renal is 36.8 µM; with NCI-H23 lung, over 100 µM; in the assay with SK-OV-3 ovarian, over 100 µM; in the assay on K-562 leukemia, 33.5 µM; in the assay with BT-549 breast it was over 100 µM; in the assay on MCF7 breast it was over 100 µM. The TGI is over 100 µM with NCI/ADR-RES ovarian, 14.4 µM in the assay on SR leukemia, over 100 µM in the assay on A549 NSCLC and over 100 µM in the assay with DU-145 prostate.
For `CCOC(=O)c1ccc2c(c1)[n+](=O)c(C(C)=O)c(C(F)(F)F)n2[O-]`, the GI50 in the assay on ACHN renal is 1.59 µM; in the assay on NCI-H23 lung, 1540 nM; with SK-OV-3 ovarian it was 1640 nM; in the assay on K-562 leukemia it was 1160 nM; in the assay on BT-549 breast, 1540 nM; in the assay on MCF7 breast, 1240 nM. Further, the GI50 in the assay with NCI/ADR-RES ovarian is 1.89 µM; in the assay on SR leukemia, 197 nM; in the assay on A549 NSCLC, 2.04 µM; with DU-145 prostate, 1570 nM. For the same compound, the TGI in the assay on ACHN renal was 3.01 µM; in the assay on NCI-H23 lung, 3.43 µM; with SK-OV-3 ovarian, 3.34 µM; in the assay on K-562 leukemia, 2.52 µM; in the assay with BT-549 breast, 3.21 µM; in the assay with MCF7 breast it was 2.61 µM. Also, the TGI in the assay on NCI/ADR-RES ovarian came to 5.98 µM; in the assay with SR leukemia, 0.625 µM; with A549 NSCLC, 4.39 µM; with DU-145 prostate it was 2.96 µM.
